Source: US20090311217A1, “3-SUBSTITUTED-1H-INDOLE COMPOUNDS, THEIR USE AS MTOR KINASE AND PI3 KINASE INHIBITORS, AND THEIR SYNTHESES” (priority 2008, published 2009)
pIC50: −log10 of the molar value.

How the values were obtained:
PI3K-alpha = PI3K-alpha (Homo sapiens, UniProt P42336); assay: PI3K-alpha fluorescence polarization assay; assay type: biochemical; details: read-out: PI3Kα Avg. IC50
PI3K-gamma = PI3K-gamma (Homo sapiens, UniProt P48736); assay: PI3K-gamma fluorescence polarization assay; assay type: biochemical; details: PI3Kγ Avg. IC50
How it was run: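 Enzyme 5 ng; substrate diC8-PI(4,5)P2 2.5 μM; ATP 25 μM; 5 mM HEPES pH 7, 2.5 mM MgCl2; DMSO ≤2%; 1 h, 25° C. Quench 10 mM EDTA. Detect with GRP1 PH domain 100 nM + TMR-IP4 probe 5 nM by polarization.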

Chain of PI3K-alpha (P42336 whole entry, species assumed): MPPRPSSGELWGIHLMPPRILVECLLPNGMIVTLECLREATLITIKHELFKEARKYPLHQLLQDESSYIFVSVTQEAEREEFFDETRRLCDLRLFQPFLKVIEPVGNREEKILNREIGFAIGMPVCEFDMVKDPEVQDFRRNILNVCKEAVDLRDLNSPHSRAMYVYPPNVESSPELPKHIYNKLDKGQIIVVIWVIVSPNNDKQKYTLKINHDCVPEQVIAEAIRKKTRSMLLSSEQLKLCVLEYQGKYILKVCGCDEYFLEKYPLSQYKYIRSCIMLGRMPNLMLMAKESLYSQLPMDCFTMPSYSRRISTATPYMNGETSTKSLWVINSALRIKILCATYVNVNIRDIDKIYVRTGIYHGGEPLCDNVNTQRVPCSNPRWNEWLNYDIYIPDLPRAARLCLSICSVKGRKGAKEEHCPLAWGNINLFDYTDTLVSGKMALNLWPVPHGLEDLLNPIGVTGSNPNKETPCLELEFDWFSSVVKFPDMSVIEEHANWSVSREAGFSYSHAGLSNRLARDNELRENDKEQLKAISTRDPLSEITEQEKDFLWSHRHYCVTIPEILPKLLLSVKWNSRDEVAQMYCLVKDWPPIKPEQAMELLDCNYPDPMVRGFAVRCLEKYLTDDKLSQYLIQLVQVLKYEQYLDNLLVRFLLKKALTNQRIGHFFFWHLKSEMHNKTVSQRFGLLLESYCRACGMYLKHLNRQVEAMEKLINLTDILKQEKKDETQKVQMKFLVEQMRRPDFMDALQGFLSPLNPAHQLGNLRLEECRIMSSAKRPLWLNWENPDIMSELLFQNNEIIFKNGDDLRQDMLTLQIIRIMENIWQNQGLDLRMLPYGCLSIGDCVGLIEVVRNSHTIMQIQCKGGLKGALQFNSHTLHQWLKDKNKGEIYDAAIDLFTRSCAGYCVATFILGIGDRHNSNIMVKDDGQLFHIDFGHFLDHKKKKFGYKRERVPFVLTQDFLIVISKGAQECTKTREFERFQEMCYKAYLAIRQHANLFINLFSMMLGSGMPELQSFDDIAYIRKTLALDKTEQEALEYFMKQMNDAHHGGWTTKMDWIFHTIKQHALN
Chain of PI3K-alpha (P27986 whole entry partner, species assumed): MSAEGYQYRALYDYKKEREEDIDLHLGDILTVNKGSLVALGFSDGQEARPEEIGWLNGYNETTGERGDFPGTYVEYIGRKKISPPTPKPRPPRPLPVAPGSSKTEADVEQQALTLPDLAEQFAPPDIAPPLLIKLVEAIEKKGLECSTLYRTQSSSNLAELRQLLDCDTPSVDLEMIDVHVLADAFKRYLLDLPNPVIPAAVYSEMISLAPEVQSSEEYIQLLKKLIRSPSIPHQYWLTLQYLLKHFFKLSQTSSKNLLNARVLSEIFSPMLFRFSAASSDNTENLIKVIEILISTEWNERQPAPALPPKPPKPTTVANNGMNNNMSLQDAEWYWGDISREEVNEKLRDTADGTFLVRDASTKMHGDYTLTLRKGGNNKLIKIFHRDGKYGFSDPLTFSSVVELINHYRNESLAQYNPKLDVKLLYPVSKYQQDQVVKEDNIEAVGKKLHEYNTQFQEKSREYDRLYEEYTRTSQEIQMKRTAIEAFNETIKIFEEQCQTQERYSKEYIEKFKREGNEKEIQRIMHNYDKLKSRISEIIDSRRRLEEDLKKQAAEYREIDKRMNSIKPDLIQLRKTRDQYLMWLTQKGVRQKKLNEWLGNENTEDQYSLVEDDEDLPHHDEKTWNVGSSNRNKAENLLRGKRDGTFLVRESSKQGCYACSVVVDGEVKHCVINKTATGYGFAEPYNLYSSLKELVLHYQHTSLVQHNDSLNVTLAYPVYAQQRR
Chain of PI3K-gamma (P48736 whole entry, species assumed, the tested form may be a part): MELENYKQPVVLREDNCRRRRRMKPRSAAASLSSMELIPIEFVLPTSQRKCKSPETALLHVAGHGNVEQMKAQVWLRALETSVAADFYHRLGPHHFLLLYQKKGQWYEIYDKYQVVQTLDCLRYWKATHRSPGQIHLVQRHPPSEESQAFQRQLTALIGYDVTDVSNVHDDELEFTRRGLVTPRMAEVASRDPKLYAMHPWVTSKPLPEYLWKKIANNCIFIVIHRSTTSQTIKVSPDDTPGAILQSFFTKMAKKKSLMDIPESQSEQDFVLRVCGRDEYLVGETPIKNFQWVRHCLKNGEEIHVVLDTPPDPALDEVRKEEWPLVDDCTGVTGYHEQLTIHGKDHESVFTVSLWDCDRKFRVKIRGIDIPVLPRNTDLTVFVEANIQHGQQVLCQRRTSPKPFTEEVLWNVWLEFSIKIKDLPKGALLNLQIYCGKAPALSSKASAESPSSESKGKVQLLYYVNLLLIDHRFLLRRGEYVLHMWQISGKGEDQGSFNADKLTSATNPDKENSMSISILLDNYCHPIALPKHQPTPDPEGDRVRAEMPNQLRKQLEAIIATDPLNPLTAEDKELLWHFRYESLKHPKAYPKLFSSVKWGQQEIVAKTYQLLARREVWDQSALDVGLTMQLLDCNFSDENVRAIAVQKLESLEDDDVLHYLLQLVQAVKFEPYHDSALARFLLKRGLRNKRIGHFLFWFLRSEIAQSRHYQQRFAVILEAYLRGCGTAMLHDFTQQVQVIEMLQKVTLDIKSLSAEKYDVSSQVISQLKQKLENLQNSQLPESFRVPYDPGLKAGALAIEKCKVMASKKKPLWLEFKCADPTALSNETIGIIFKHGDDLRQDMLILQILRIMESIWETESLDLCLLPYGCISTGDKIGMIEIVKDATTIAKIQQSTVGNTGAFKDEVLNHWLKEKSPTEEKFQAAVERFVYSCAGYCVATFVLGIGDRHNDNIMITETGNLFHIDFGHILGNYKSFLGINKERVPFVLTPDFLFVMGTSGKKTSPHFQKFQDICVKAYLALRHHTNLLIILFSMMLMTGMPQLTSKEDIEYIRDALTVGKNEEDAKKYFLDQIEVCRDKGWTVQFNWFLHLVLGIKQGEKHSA

SMILES | pIC50 (PI3K-alpha) | pIC50 (PI3K-gamma)
COc1ccc2c(c1)c(/C=C1\Oc3ccc(NC(=O)NCCN)cc3C1=O)c(-c1ccccc1)n2CCN1CCN(C)CC1 [Compound 576, 1-(2-aminoethyl)-3-[(2Z)-2-({5-methoxy-1-[2-(4-methylpiperazin-1-yl)ethyl]-2-phenyl-1H-indol-3-yl}methylene)-3-oxo-2,3-dihydro-1-benzofuran-5-yl]urea] | 9.22 | 7.56
COc1ccc2c(c1)c(/C=C1\Oc3ccc(NC(=O)NCCN)cc3C1=O)c(C1CCCC1)n2CCN1CCN(C)CC1 [Compound 577, 1-(2-aminoethyl)-3-[(2Z)-2-({2-cyclopentyl-5-methoxy-1-[2-(4-methylpiperazin-1-yl)ethyl]-1H-indol-3-yl}methylene)-3-oxo-2,3-dihydro-1-benzofuran-5-yl]urea] | 8.96 | 6.84
CNC(=O)Nc1ccc2c(c1)C(=O)/C(=C/c1cn(CCCN3CCCCC3)c3ccc(OC)cc13)O2 [Compound 578, 1-[(2Z)-2-{[5-methoxy-1-(3-piperidin-1-ylpropyl)-1H-indol-3-yl]methylene}-3-oxo-2,3-dihydro-1-benzofuran-5-yl]-3-methylurea] | 7.42 | 5.66
CNC(=O)Nc1ccc2c(c1)C(=O)/C(=C/c1cn(CCCC#N)c3ccc(OC)cc13)O2 [Compound 579, 1-[(2Z)-2-{[1-(3-cyanopropyl)-5-methoxy-1H-indol-3-yl]methylene}-3-oxo-2,3-dihydro-1-benzofuran-5-yl]-3-methylurea] | 7.52 | 6.89
CNC(=O)Nc1ccc2c(c1)C(=O)/C(=C/c1cn(CCCN3CCOCC3)c3ccc(OC)cc13)O2 [Compound 580, 1-[(2Z)-2-{[5-methoxy-1-(3-morpholin-4-ylpropyl)-1H-indol-3-yl]methylene}-3-oxo-2,3-dihydro-1-benzofuran-5-yl]-3-methylurea] | 7.28 | 5.87
CNC(=O)Nc1ccc2c(c1)C(=O)/C(=C/c1c(-c3c(C)noc3C)[nH]c3ccc(OC)cc13)O2 [Compound 581, 1-[(2Z)-2-{[2-(3,5-dimethylisoxazol-4-yl)-5-methoxy-1H-indol-3-yl]methylene}-3-oxo-2,3-dihydro-1-benzofuran-5-yl]-3-methylurea] | 8.70 | 7.58
COc1cc(/C=C/CN2CCN(C)CC2)c2c(c1)c(/C=C1\Oc3cc(O)ccc3C1=O)cn2C [Compound 582, (2Z)-6-hydroxy-2-({5-methoxy-1-methyl-7-[(1E)-3-(4-methylpiperazin-1-yl)prop-1-en-1-yl]-1H-indol-3-yl}methylene)-1-benzofuran-3(2H)-one] | 6.74 | 5.45
CNC(=O)Nc1ccc2c(c1)C(=O)/C(=C/c1c[nH]c3c(CCCN4CCN(C)CC4)cc(OC)cc13)O2 [Compound 583, 1-[(2Z)-2-({5-methoxy-7-[3-(4-methylpiperazin-1-yl)propyl]-1H-indol-3-yl}methylene)-3-oxo-2,3-dihydro-1-benzofuran-5-yl]-3-methylurea] | 6.65 | 5.19
CNCCNC(=O)Nc1ccc2c(c1)C(=O)/C(=C/c1c(C3CCCCC3)n(CCN3CCN(C)CC3)c3ccc(OC)cc13)O2 [Compound 584, 1-[(2Z)-2-({2-cyclohexyl-5-methoxy-1-[2-(4-methylpiperazin-1-yl)ethyl]-1H-indol-3-yl}methylene)-3-oxo-2,3-dihydro-1-benzofuran-5-yl]-3-[2-(methylamino)ethyl]urea] | 8.96 | 7.59
CNC(=O)Nc1ccc2c(c1)C(=O)/C(=C/c1c(C)n(CCCN3CCOCC3)c3ccc(OC)cc13)O2 [Compound 585, 1-[(2Z)-2-{[5-methoxy-2-methyl-1-(3-morpholin-4-ylpropyl)-1H-indol-3-yl]methylene}-3-oxo-2,3-dihydro-1-benzofuran-5-yl]-3-methylurea] | 7.96 | 6.86
CNC(=O)Nc1ccc2c(c1)C(=O)/C(=C/c1c(C)n(CCCN3CCN(C)CC3)c3ccc(OC)cc13)O2 [Compound 586, 1-[(2Z)-2-({5-methoxy-2-methyl-1-[3-(4-methylpiperazin-1-yl)propyl]-1H-indol-3-yl}methylene)-3-oxo-2,3-dihydro-1-benzofuran-5-yl]-3-methylurea] | 8.46 | 5.99
CNC(=O)Nc1ccc2c(c1)C(=O)/C(=C/c1c(C)n(CCCN3CCC(O)CC3)c3ccc(OC)cc13)O2 [Compound 587, 1-[(2Z)-2-({1-[3-(4-hydroxypiperidin-1-yl)propyl]-5-methoxy-2-methyl-1H-indol-3-yl}methylene)-3-oxo-2,3-dihydro-1-benzofuran-5-yl]-3-methylurea] | 8.40 | 6.01
CNC(=O)Nc1ccc2c(c1)C(=O)/C(=C/c1c(C)n(CCCN3CCCCC3)c3ccc(OC)cc13)O2 [Compound 588, 1-[(2Z)-2-{[5-methoxy-2-methyl-1-(3-piperidin-1-ylpropyl)-1H-indol-3-yl]methylene}-3-oxo-2,3-dihydro-1-benzofuran-5-yl]-3-methylurea] | 8.46 | 6.08
CNC(=O)Nc1ccc2c(c1)C(=O)/C(=C/c1c(C)n(CCCN3CCC(O)C3)c3ccc(OC)cc13)O2 (centres unmarked) [Compound 589, 1-[(2Z)-2-({1-[3-(3-hydroxypyrrolidin-1-yl)propyl]-5-methoxy-2-methyl-1H-indol-3-yl}methylene)-3-oxo-2,3-dihydro-1-benzofuran-5-yl]-3-methylurea] | 8.35 | 6.01
CNC(=O)Nc1ccc2c(c1)C(=O)/C(=C/c1c(-c3ccncc3)n(CCN3CCN(C)CC3)c3ccc(OC)cc13)O2 [Compound 590, 1-[(2Z)-2-({5-methoxy-1-[2-(4-methylpiperazin-1-yl)ethyl]-2-pyridin-4-yl-1Hindol-3-yl}methylene)-3-oxo-2,3-dihydro-1-benzofuran-5-yl]-3-methylurea] | 8.44 | 5.99
CNC(=O)Nc1ccc2c(c1)C(=O)/C(=C/c1c(-c3nc(C(C)C)no3)[nH]c3ccc(OC)cc13)O2 [Compound 591, 1-[(2Z)-2-{[2-(3-isopropyl-1,2,4-oxadiazol-5-yl)-5-methoxy-1H-indol-3-yl]methylene}-3-oxo-2,3-dihydro-1-benzofuran-5-yl]-3-methylurea] | 8.10 | 5.02
CNC(=O)Nc1ccc2c(c1)C(=O)/C(=C/c1c(-c3nc(C4CC4)no3)[nH]c3ccc(OC)cc13)O2 [Compound 592, 1-[(2Z)-2-{[2-(3-cyclopropyl-1,2,4-oxadiazol-5-yl)-5-methoxy-1H-indol-3-yl]methylene}-3-oxo-2,3-dihydro-1-benzofuran-5-yl]-3-methylurea] | 8.26 | 5.05
CCCc1noc(-c2[nH]c3ccc(OC)cc3c2/C=C2\Oc3ccc(NC(=O)NC)cc3C2=O)n1 [Compound 593, 1-[(2Z)-2-{[5-methoxy-2-(3-propyl-1,2,4-oxadiazol-5-yl)-1H-indol-3-yl]methylene}-3-oxo-2,3-dihydro-1-benzofuran-5-yl]-3-methylurea] | 7.90 | 6.11
CNC(=O)Nc1ccc2c(c1)C(=O)/C(=C/c1c[nH]c3c(/C=C/CN4CCN(C)CC4)cc(OC)cc13)O2 [Compound 594, 1-[(2Z)-2-({5-methoxy-7-[(1E)-3-(4-methylpiperazin-1-yl)prop-1-en-1-yl]-1Hindol-3-yl}methylene)-3-oxo-2,3-dihydro-1-benzofuran-5-yl]-3-methylurea] | 7.13 | 5.66
CNC(=O)Nc1ccc2c(c1)C(=O)/C(=C/c1c[nH]c3c(C#N)cc(OC)cc13)O2 [Compound 595, 1-{(2Z)-2-[(7-cyano-5-methoxy-1H-indol-3-yl)methylene]-3-oxo-2,3-dihydro-1-benzofuran-5-yl}-3-methylurea] | 6.65 | 5.81
CNC(=O)Nc1ccc2c(c1)C(=O)/C(=C/c1c(-c3cccnc3)n(CCN3CCN(C)CC3)c3ccc(OC)cc13)O2 [Compound 596, 1-[(2Z)-2-({5-methoxy-1-[2-(4-methylpiperazin-1-yl)ethyl]-2-pyridin-3-yl-1Hindol-3-yl}methylene)-3-oxo-2,3-dihydro-1-benzofuran-5-yl]-3-methylurea] | 8.77 | 6.55
CNC(=O)Nc1ccc2c(c1)C(=O)/C(=C/c1c(C)n(CCCN3CCCC3)c3ccc(OC)cc13)O2 [Compound 597, 1-[(2Z)-2-{[5-methoxy-2-methyl-1-(3-pyrrolidin-1-ylpropyl)-1H-indol-3-yl]methylidene}-3-oxo-2,3-dihydro-1-benzofuran-5-yl]-3-methylurea] | 8.46 | 6.35
CNC(=O)Nc1ccc2c(c1)C(=O)/C(=C/c1c(C)n(CCCn3ccnc3)c3ccc(OC)cc13)O2 [Compound 598, 1-[(2Z)-2-({1-[3-(1H-imidazol-1-yl)propyl]-5-methoxy-2-methyl-1H-indol-3-yl}methylidene)-3-oxo-2,3-dihydro-1-benzofuran-5-yl]-3-methylurea] | 7.51 | 6.38
CNC(=O)Nc1ccc2c(c1)C(=O)/C(=C/c1c(C)n(CCCN3CCN(CCO)CC3)c3ccc(OC)cc13)O2 [Compound 599, 1-{(2Z)-2-[(1-{3-[4-(2-hydroxyethyl)piperazin-1-yl]propyl}-5-methoxy-2-methyl-1H-indol-3-yl)methylidene]-3-oxo-2,3-dihydro-1-benzofuran-5-yl}-3-methylurea] | 8.00 | 6.02
CNC(=O)Nc1ccc2c(c1)C(=O)/C(=C/c1c(C(=O)N(C)C)[nH]c3ccc(OC)cc13)O2 [Compound 600, 5-methoxy-N,N-dimethyl-3-[(Z)-{5-[(methylcarbamoyl)amino]-3-oxo-1-benzofuran-2(3H)-ylidene}methyl]-1H-indole-2-carboxamide] | 7.62 | 6.89
